Values quoted from earlier work in patent US8889636B2, “Anti-microbial compositions” (Biotelliga Holdings Limited, priority 2010, dated 2014).
In brackets after ≈: the same amount, converted by molar mass.

Legend:
[1] = tested on: Candidia albacans; conditions: modest antifungal activity
[2] = tested on: HIV-1 regulatory protein and its viral RNA binding site

## CCC(C)CC(C)/C=C(/C=C(C)/C=C/C=C/C=C/C=C/C=C/c1cc2c(c(=O)o1)[C@H](O)[C@@H](O)[C@H](C(O)C(O)CO)O2)C(=O)O (some centres unmarked) [Orevactaene]
[1]
  MIC: 250 µg/mL (≈ 408 µM)
[2]
  Inhibition of binding of HIV-1 regulatory protein and its viral RNA binding site: found to inhibit binding
